Structures are written as SMILES.

The assay concerns waterhemp_RES2 (ALS/HPPD resistant common waterhemp, Amaranthus rudis). Description: Test F postemergence: waterhemp_RES2. Type of assay: in vivo. The conditions noted are these: scale 0 to 100. The source says: Seeds of plant species selected from corn (Zea mays), soybean (Glycine max), velvetleaf (Abutilon theophrasti), lambsquarters (Chenopodium album), poinsettia, wild (wild poinsettia, Euphorbia heterophylla), pigweed, palmer (palmer pigweed, Amaranthus palmeri), waterhemp (common waterhemp, Amaranthus rudis), surinam grass (Brachiaria decumbens), crabgrass, Brazil (Brazilian crabgrass, Digitaria horizontalis), panicum, fall (fall panicum Panicum dichotomiflorum), crabgrass, large (large crabgrass, Digitaria sanguinalis), foxtail, giant (giant foxtail, Setaria faberii), foxtail, green (green foxtail Setaria viridis), goosegrass (Eleusine indica), ragweed (common ragweed, Ambrosia elatior), barnyardgrass (Echinochloa crus-galli), sandbur (southern sandbur, Cenchrus echinatus), arrowleaf sida (Sida rhombifolia), ryegrass, Italian (Italian ryegrass, Lolium multiflorum), dayflower, VA (Virginia (VA) dayflower, Commelina virginica), field bindweed (Convolvulus arvensis), cocklebur (common cocklebur, Xanthium strumarium), morningglory (Ipomoea coccinea), nightshade (eastern black nightshade, Solanum ptycanthum), kochia (Kochia scoparia), nutsedge, yellow (yellow nutsedge, Cyperus esculentus), johnsongrass (Sorghum halepense), smartweed (ladysthumb smartweed, Polygonum persicaria), and beggarticks (hairy beggarticks, Bidens pilosa), were planted into a silt loam soil and treated preemergence with test chemicals formulated in a non-phytotoxic solvent mixture which included a surfactant. At the same time, plants selected from these crop and weed species and also pigweed (Amaranthus retroflexus), waterhemp_RES1 (ALS/Triazine resistant common waterhemp, Amaranthus rudis) and waterhemp_RES2 (ALS/HPPD resistant common waterhemp, Amaranthus rudis) were planted in pots containing a planting medium comprising spaghnum peat moss, vermiculite, wetting agent and starter nutrients treated with postemergence applications of some of the test chemicals formulated in the same manner. Plants ranged in height from 2 to 18 cm for postemergence treatments (1- to 4-leaf stage).
Treated plants and controls were maintained in a greenhouse for 14 to 21 days, after which time all species were compared to controls and visually evaluated. Plant response ratings, summarized in Table E, are based on a scale of 0 to 100 where 0 is no effect and 100 is complete control. A dash (-) response means no test result.

Consider `Cc1nn(-c2ccnc(Cl)c2)nc1Cc1ccnc(C(F)(F)F)c1` [Compound 141], for which the “Plant response rating, Waterhemp, Res2” value was 85 (8 g ai/ha); 95 (16 g ai/ha); 95 (31 g ai/ha); 95 (62 g ai/ha); 100 (125 g ai/ha).

Take `CCc1nn(-c2ccc(C(F)(F)F)cc2)nc1Oc1ccnc(C(F)(F)F)c1` [Compound 169]: the “Plant response rating, Waterhemp, Res2” value worked out at 75 (16 g ai/ha); 85 (31 g ai/ha); 95 (62 g ai/ha); 100 (125 g ai/ha); 100 (250 g ai/ha).

Turning to `CCOc1nn(-c2ccc(F)cc2)nc1Cc1ccnc(C(F)(F)F)c1` [Compound 196, 4-[[5-ethoxy-2-(4-fluorophenyl)-2H-1,2,3-triazol-4-yl]methyl]-2-(trifluoromethyl)pyridine], the “Plant response rating, Waterhemp, Res2” value (8 g ai/ha) was 90; the “Plant response rating, Waterhemp, Res2” value (16 g ai/ha) worked out at 90; the “Plant response rating, Waterhemp, Res2” value (31 g ai/ha) is on record as 95; the “Plant response rating, Waterhemp, Res2” value (62 g ai/ha) is 95; the “Plant response rating, Waterhemp, Res2” value (125 g ai/ha) is given as 95.

Values taken from patent US9302999B2, “Substituted triazoles as herbicides” (E. I. DU PONT DE NEMOURS AND COMPANY, priority 2012, dated 2016).
